Reference: patent publication US7396837B2, “Antitumoral analogs of lamellarins” (Pharma Mar, S.A.U., priority 2002, dated 2008)
Read-outs that look alike come from different tables or passages of the source.

Experiments:
Assay type in all cases: cell-based
HeLa = assay: SRB colorimetric cell growth inhibition assay, HeLa; conditions: for GI50: GI=growth inhibition, read-out: GI50 HELA; for CC50: cell killing (cytotoxic effect), read-out: LC50 HELA; for IC (TGI): read-out: TGI HELA
Method in brief: (§1)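 Growth inhibition (GI), cytostatic total growth inhibition (TGI) and cytotoxic cell-kill (LC) parameters were calculated from SRB-stained cultures held under constant compound exposure, triplicates averaged.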

IGROV-ET = assay: SRB colorimetric cell growth inhibition assay, IGROV-ET (ET-743 resistant); conditions: IGROV-ET; for GI50: GI=growth inhibition, read-out: GI50 IGROV-ET; for CC50: cell killing (cytotoxic effect), read-out: LC50 IGROV-ET
Method in brief: as §1

K-562 = assay: SRB colorimetric cell growth inhibition assay, K-562; conditions: for CC50: cell killing (cytotoxic effect), read-out: LC50 K-562; for IC (TGI): read-out: TGI K-562; for GI50: GI=growth inhibition, read-out: GI50 K-562
Method in brief: as §1

LoVo-Dox = assay: SRB colorimetric cell growth inhibition assay, LoVo-Dox (MDR); conditions: LOVO-DOX; for CC50: cell killing (cytotoxic effect), read-out: LC50 LOVO-DOX; for IC (TGI): read-out: TGI LOVO-DOX; for GI50: GI=growth inhibition, read-out: GI50 LOVO-DOX
Method in brief: as §1

SK-BR-3 = assay: SRB colorimetric cell growth inhibition assay, SK-BR-3; conditions: for GI50: GI=growth inhibition, read-out: GI50 SK-BR-3; for CC50: cell killing (cytotoxic effect), read-out: LC50 SK-BR-3
Method in brief: as §1

PANC-1 = assay: SRB colorimetric cell growth inhibition assay, PANC-1; conditions: for CC50: cell killing (cytotoxic effect), read-out: LC50 PANC-1; for IC (TGI): read-out: TGI PANC-1; for GI50: GI=growth inhibition, read-out: GI50 PANC-1
Method in brief: as §1

HT-29 = assay: SRB colorimetric cell growth inhibition assay, HT-29; conditions: for GI50: GI=growth inhibition, read-out: GI50 HT-29; for CC50: cell killing (cytotoxic effect), read-out: LC50 HT-29; for IC (TGI): read-out: TGI HT-29
Method in brief: as §1

IGROV = assay: SRB colorimetric cell growth inhibition assay, IGROV; conditions: IGROV; for GI50: GI=growth inhibition, read-out: GI50 IGROV; for CC50: cell killing (cytotoxic effect), read-out: LC50 IGROV
Method in brief: as §1

DU-145 = assay: SRB colorimetric cell growth inhibition assay, DU-145; conditions: for GI50: GI=growth inhibition, read-out: GI50 DU-145; for CC50: cell killing (cytotoxic effect), read-out: LC50 DU-145
Method in brief: as §1

LNCaP = assay: SRB colorimetric cell growth inhibition assay, LNCaP; conditions: LN-caP; for GI50: GI=growth inhibition, read-out: GI50 LN-caP; for CC50: cell killing (cytotoxic effect), read-out: LC50 LN-caP
Method in brief: as §1

LoVo = assay: SRB colorimetric cell growth inhibition assay, LoVo; conditions: for CC50: cell killing (cytotoxic effect), read-out: LC50 LOVO; for IC (TGI): read-out: TGI LOVO; for GI50: GI=growth inhibition, read-out: GI50 LOVO
Method in brief: as §1

HeLa-APL = assay: SRB colorimetric cell growth inhibition assay, HeLa-APL (aplidine resistant); conditions: HELA-APL; for GI50: GI=growth inhibition, read-out: GI50 HELA-APL; for CC50: cell killing (cytotoxic effect), read-out: LC50 HELA-APL; for IC (TGI): read-out: TGI HELA-APL
Method in brief: as §1

SK-MEL-28 = assay: SRB colorimetric cell growth inhibition assay, SK-MEL-28; conditions: for GI50: GI=growth inhibition, read-out: GI50 MEL-28; for CC50: cell killing (cytotoxic effect), read-out: LC50 MEL-28
Method in brief: as §1

A-549 = assay: SRB colorimetric cell growth inhibition assay, A-549; conditions: for GI50: GI=growth inhibition, read-out: GI50 A-549; for CC50: cell killing (cytotoxic effect), read-out: LC50 A-549; for IC (TGI): read-out: TGI A-549
Method in brief: as §1

[1] = Homo sapiens, HeLa, total growth inhibition (cytostatic effect)
[2] = total growth inhibition (cytostatic effect)
[3] = Homo sapiens, K562, K-562, total growth inhibition (cytostatic effect)
[4] = Homo sapiens, total growth inhibition (cytostatic effect)
[5] = SK-BR-3, total growth inhibition (cytostatic effect)
[6] = Homo sapiens, PANC-1, PANC-1, total growth inhibition (cytostatic effect)
[7] = Homo sapiens, HT-29, HT-29, total growth inhibition (cytostatic effect)
[8] = DU-145, total growth inhibition (cytostatic effect)
[9] = Homo sapiens, LoVo, total growth inhibition (cytostatic effect)
[10] = MEL-28, total growth inhibition (cytostatic effect)
[11] = Homo sapiens, A549, A-549, total growth inhibition (cytostatic effect)
[12] = Homo sapiens, SK-MEL-28, MEL-28

COc1cc(-c2c3c4cc(OC)c(OC(=O)[C@@H](N)Cc5ccccc5)cc4oc(=O)c3n3ccc4c(OC(=O)[C@@H](N)Cc5ccccc5)c(OC)c(OC)cc4c23)ccc1OC(=O)[C@@H](N)Cc1ccccc1 [Compound 207]
GI50 (HeLa; Homo sapiens, HeLa): 42.2 nM
CC50 (HeLa; Homo sapiens, HeLa): 3340 nM
IC (TGI) (HeLa; [1]): 1230 nM
GI50 (IGROV-ET): 43.6 nM
CC50 (IGROV-ET): 2380 nM
TGI IGROV-ET (IGROV-ET; [2]): 2.86E−07 Molar
CC50 (K-562; Homo sapiens, K562, K-562): 9260 nM
IC (TGI) (K-562; [3]): 3060 nM
GI50 (K-562; K-562): 92 nM
CC50 (LoVo-Dox; Homo sapiens): 9260 nM
IC (TGI) (LoVo-Dox; [4]): 2850 nM
GI50 (LoVo-Dox): 316 nM
GI50 (SK-BR-3; SK-BR-3): 202 nM
CC50 (SK-BR-3; SK-BR-3): 4210 nM
TGI SK-BR-3 (SK-BR-3; [5]): 1.07E−06 Molar
CC50 (PANC-1; Homo sapiens, PANC-1, PANC-1): 9260 nM
IC (TGI) (PANC-1; [6]): 2370 nM
GI50 (PANC-1; PANC-1): 127 nM
GI50 (HT-29; HT-29): 3770 nM
CC50 (HT-29; Homo sapiens, HT-29, HT-29): 9260 nM
IC (TGI) (HT-29; [7]): 9260 nM
GI50 (IGROV): 76.3 nM
CC50 (IGROV): 1550 nM
TGI IGROV (IGROV; [2]): 3.18E−07 Molar
GI50 (DU-145; DU-145): 23 nM
CC50 (DU-145; DU-145): 74.8 nM
TGI DU-145 (DU-145; [8]): 4.16E−08 Molar
GI50 (LNCaP): 127 nM
CC50 (LNCaP): 4100 nM
TGI LN-caP (LNCaP; [2]): 9.44E−07 Molar
CC50 (LoVo; Homo sapiens, LoVo): 868 nM
IC (TGI) (LoVo; [9]): 405 nM
GI50 (LoVo; LOVO): 189 nM
GI50 (HeLa-APL; Homo sapiens): 77.9 nM
CC50 (HeLa-APL; Homo sapiens): 3710 nM
IC (TGI) (HeLa-APL; [4]): 1500 nM
GI50 (SK-MEL-28; MEL-28): 44.4 nM
CC50 (SK-MEL-28; MEL-28): 4600 nM
TGI MEL-28 (SK-MEL-28; [10]): 2.45E−07 Molar
GI50 (A-549; A-549): 91.4 nM
CC50 (A-549; Homo sapiens, A549, A-549): 3550 nM
IC (TGI) (A-549; [11]): 1020 nM

COc1cc2c(cc1O)oc(=O)c1c2c(-c2cccc([N+](=O)[O-])c2)c2c3cc(OC)c(O)cc3ccn21 [Compound 221]
GI50 (HeLa; Homo sapiens, HeLa): 56.4 nM
CC50 (HeLa; Homo sapiens, HeLa): 20100 nM
IC (TGI) (HeLa; [1]): 20100 nM
GI50 (IGROV-ET; Homo sapiens): 64.8 nM
CC50 (IGROV-ET; Homo sapiens): 20100 nM
IC (TGI) (IGROV-ET; Homo sapiens, total growth inhibition (cytostatic effect), read-out: TGI IGROV-ET): 20100 nM
GI50 (K-562; Homo sapiens, K562, K-562): 88.3 nM
CC50 (K-562; Homo sapiens, K562, K-562): 20100 nM
IC (TGI) (K-562; [3]): 20100 nM
GI50 (LoVo-Dox; Homo sapiens): 2830 nM
CC50 (LoVo-Dox; Homo sapiens): 20100 nM
IC (TGI) (LoVo-Dox; [4]): 14200 nM
GI50 (SK-BR-3; Homo sapiens, SK-BR-3, SK-BR-3): 1530 nM
CC50 (SK-BR-3; Homo sapiens, SK-BR-3, SK-BR-3): 20100 nM
IC (TGI) (SK-BR-3; Homo sapiens, SK-BR-3, SK-BR-3, total growth inhibition (cytostatic effect), read-out: TGI SK-BR-3): 12900 nM
GI50 (PANC-1; Homo sapiens, PANC-1, PANC-1): 78.6 nM
CC50 (PANC-1; Homo sapiens, PANC-1, PANC-1): 20100 nM
IC (TGI) (PANC-1; [6]): 20100 nM
GI50 (HT-29; Homo sapiens, HT-29, HT-29): 20100 nM
CC50 (HT-29; Homo sapiens, HT-29, HT-29): 20100 nM
IC (TGI) (HT-29; [7]): 20100 nM
GI50 (IGROV; Homo sapiens): 81.9 nM
CC50 (IGROV; Homo sapiens): 20100 nM
IC (TGI) (IGROV; Homo sapiens, total growth inhibition (cytostatic effect), read-out: TGI IGROV): 20100 nM
GI50 (DU-145; Homo sapiens, DU-145, DU-145): 43.1 nM
CC50 (DU-145; Homo sapiens, DU-145, DU-145): 20100 nM
IC (TGI) (DU-145; Homo sapiens, DU-145, DU-145, total growth inhibition (cytostatic effect), read-out: TGI DU-145): 257 nM
GI50 (LNCaP; Homo sapiens, LNCaP): 72.2 nM
CC50 (LNCaP; Homo sapiens, LNCaP): 20100 nM
IC (TGI) (LNCaP; Homo sapiens, LNCaP, total growth inhibition (cytostatic effect), read-out: TGI LN-caP): 5020 nM
GI50 (LoVo; Homo sapiens, LoVo): 2410 nM
CC50 (LoVo; Homo sapiens, LoVo): 15900 nM
IC (TGI) (LoVo; [9]): 6200 nM
GI50 (HeLa-APL; Homo sapiens): 79.6 nM
CC50 (HeLa-APL; Homo sapiens): 20100 nM
IC (TGI) (HeLa-APL; [4]): 20100 nM
GI50 (SK-MEL-28; [12]): 106 nM
CC50 (SK-MEL-28; [12]): 20100 nM
IC (TGI) (SK-MEL-28; Homo sapiens, SK-MEL-28, MEL-28, total growth inhibition (cytostatic effect), read-out: TGI MEL-28): 20100 nM
GI50 (A-549; Homo sapiens, A549, A-549): 80.2 nM
CC50 (A-549; Homo sapiens, A549, A-549): 20100 nM
IC (TGI) (A-549; [11]): 20100 nM

COc1cc2c(cc1O)oc(=O)c1c2c(-c2ccc(OC(=O)[C@H](C)N)c(OC)c2)c2c3cc(OC)c(O)cc3ccn21.Cl [Compound 238]
GI50 (HeLa; HELA): 52.2 nM
CC50 (HeLa; HELA): 1240 nM
TGI HELA (HeLa; HELA, total growth inhibition (cytostatic effect)): 1.31E−07 Molar
GI50 (IGROV-ET): 41.3 nM
CC50 (IGROV-ET): 16500 nM
TGI IGROV-ET (IGROV-ET; [2]): 1.44E−07 Molar
GI50 (K-562; K-562): 43.3 nM
CC50 (K-562; K-562): 1200 nM
TGI K-562 (K-562; K-562, total growth inhibition (cytostatic effect)): 2.47E−07 Molar
GI50 (LoVo-Dox): 2260 nM
CC50 (LoVo-Dox): 16500 nM
TGI LOVO-DOX (LoVo-Dox; [2]): 8.98E−07 Molar
GI50 (SK-BR-3; SK-BR-3): 153 nM
CC50 (SK-BR-3; SK-BR-3): 16500 nM
TGI SK-BR-3 (SK-BR-3; [5]): 1.61E−06 Molar
GI50 (PANC-1; PANC-1): 25.4 nM
CC50 (PANC-1; PANC-1): 1610 nM
TGI PANC-1 (PANC-1; PANC-1, total growth inhibition (cytostatic effect)): 2.50E−07 Molar
GI50 (HT-29; HT-29): 2650 nM
CC50 (HT-29; HT-29): 16500 nM
TGI HT-29 (HT-29; HT-29, total growth inhibition (cytostatic effect)): 1.06E−05 Molar
GI50 (IGROV): 79.9 nM
CC50 (IGROV): 1260 nM
TGI IGROV (IGROV; [2]): 2.82E−07 Molar
GI50 (DU-145; DU-145): 45.8 nM
CC50 (DU-145; DU-145): 16500 nM
TGI DU-145 (DU-145; [8]): 9.65E−08 Molar
GI50 (LNCaP): 2130 nM
CC50 (LNCaP): 16500 nM
TGI LN-caP (LNCaP; [2]): 1.65E−05 Molar
GI50 (LoVo; LOVO): 57 nM
CC50 (LoVo; LOVO): 1290 nM
TGI LOVO (LoVo; LOVO, total growth inhibition (cytostatic effect)): 2.26E−07 Molar
GI50 (HeLa-APL): 157 nM
CC50 (HeLa-APL): 1760 nM
TGI HELA-APL (HeLa-APL; [2]): 5.16E−07 Molar
GI50 (SK-MEL-28; MEL-28): 52.6 nM
CC50 (SK-MEL-28; MEL-28): 12500 nM
TGI MEL-28 (SK-MEL-28; [10]): 3.51E−07 Molar
GI50 (A-549; A-549): 45.8 nM
CC50 (A-549; A-549): 16500 nM
TGI A-549 (A-549; A-549, total growth inhibition (cytostatic effect)): 4.38E−07 Molar
